Test results from US10858368B2, “Modulators of the 5-hydroxytryptamine receptor 7 and their method of use” (Temple University—Of The Commonwealth System of Higher …, priority 2016, dated 2020).

target: 5HT7 receptors (Homo sapiens (Human), UniProt P34969); experiment: Radiolabel Binding Studies for Serotonin 5-HT7 Receptors, Method 2 ([3H]-5HT competition; Ki, and percent inhibition at 10 μM); conditions: single concentration 10 uM; inhibition of radioligand binding to 5HT7 receptors; read-out: 5-HT7 % inhib @ 10 uM
Method: A solution of the compound of the disclosure to be tested is prepared as a 1-mg/ml stock in Assay Buffer or DMSO according to its solubility. A similar stock of the reference compound chlorpromazine is also prepared as a positive control. Eleven dilutions (5× assay concentration) of the compound of the disclosure and chlorpromazine are prepared in the Assay Buffer by serial dilution to yield final corresponding assay concentrations ranging from 10 pM to 10 μM.
A stock concentration of 5 nM [^3H]-5-Hydroxytryptamine ([^3H]-5HT) is prepared in 50 mM Tris-HCl, 10 mM MgCl2, 1 mM EDTA, pH 7.4 (Assay Buffer). Aliquots (50 μl) of radioligand are dispensed into the wells of a 96-well plate containing 100 al of Assay Buffer. Duplicate 50-μl aliquots of the compound of the disclosure test and chlorpromazine positive control reference compound serial dilutions are added.
Membrane fractions of cells expressing recombinant 5HT7 receptors (50 μL) are dispensed into each well. The membranes are prepared from stably transfected cell lines expressing 5HT7 receptors cultured on 10-cm plates by harvesting PBS-rinsed monolayers, resuspending and lysing in chilled, hypotonic 50 mM Tris-HCl, pH 7.4, centrifuging at 20,000×g, decanting the supernatant and storing at −80° C.; the membrane preparations are resuspended in 3 ml of chilled Assay Buffer and homogenized by several passages through a 26 gauge needle before using in the assay.
The 250-μl reactions are incubated at room temperature for 1.5 hours, then harvested by rapid filtration onto 0.3% polyethyleneimine-treated, 96-well filter mats using a 96-well Filtermate harvester. Four rapid 500-μl washes are performed with chilled Assay Buffer to reduce non-specific binding. The filter mats are dried, then scintillant is added to the filters and the radioactivity retained on the filters is counted in a Microbeta scintillation counter.
Raw data (dpm) representing total radioligand binding (i.e., specific+non-specific binding) are plotted as a function of the logarithm of the molar concentration of the competitor (i.e., test or reference compound). Non-linear regression of the normalized (i.e., percent radioligand binding compared to that observed in the absence of test or reference compound) raw data is performed in Prism 4.0 (GraphPad Software) using the built-in three parameter logistic model describing ligand competition binding to radioligand-labeled sites: y=bottom+[(top−bottom)/(1+10×−log IC50)] where bottom equals the residual radioligand binding measured in the presence of 10 μM reference compound (i.e., non-specific binding) and top equals the total radioligand binding observed in the absence of competitor. The log IC50 (i.e., the log of the ligand concentration that reduces radioligand binding by 50%) is thus estimated from the data and used to obtain the Ki by applying the Cheng-Prusoff approximation: Ki=IC50/(1+[ligand]/KD) where [ligand] equals the assay radioligand concentration and KD equals the affinity constant of the radioligand for the target receptor.
Compounds of the disclosure are also screened at a single concentration of 10 μM using the same method described for the Radiolabel Binding Studies for Serotonin 5HT7 receptors to determine the percent inhibition of [^3H]-5HT binding.

5HT7 receptors, sequence (P34969 whole entry): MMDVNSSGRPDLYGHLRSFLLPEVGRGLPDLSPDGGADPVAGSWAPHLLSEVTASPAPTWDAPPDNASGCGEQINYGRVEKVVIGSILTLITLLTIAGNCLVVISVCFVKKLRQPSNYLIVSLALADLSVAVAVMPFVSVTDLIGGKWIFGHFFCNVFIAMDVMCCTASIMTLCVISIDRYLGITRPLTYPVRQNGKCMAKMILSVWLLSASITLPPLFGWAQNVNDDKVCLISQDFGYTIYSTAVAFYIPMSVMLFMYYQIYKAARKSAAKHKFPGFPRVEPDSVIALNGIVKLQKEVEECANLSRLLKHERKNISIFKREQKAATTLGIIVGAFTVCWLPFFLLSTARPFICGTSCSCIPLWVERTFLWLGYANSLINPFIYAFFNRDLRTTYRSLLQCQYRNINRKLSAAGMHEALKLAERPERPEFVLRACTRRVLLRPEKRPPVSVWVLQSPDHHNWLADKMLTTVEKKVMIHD

Row | inhibition at 10 µM [%] | Compound
1 | 91.6 | CNC(=O)N1CCC2(CC1)CC(CCN1CCN(c3ccc(C)cc3)CC1)OC2=O (stereo not shown) [Entry 5]
2 | 100 | Cc1nc2cccc(N3CCN(CCC4CC5(CCN(S(C)(=O)=O)CC5)C(=O)O4)CC3)c2[nH]1 (stereo not shown) [Entry 8]
3 | 88.5 | CC(=O)N1CCC2(CC1)CC(CCN1CCN(c3ccc(C)cc3)CC1)OC2=O (stereo not shown) [Entry 4]
4 | 90 | COC(=O)N1CCC2(CC1)CC(CCN1CCN(c3ccc(C)cc3)CC1)OC2=O (stereo not shown) [Entry 3]

The remaining lines, values behind:

Row | Compound | inhibition at 10 µM [%]
5 | Cc1ccc(N2CCN(CCC3CC4(CCN(S(C)(=O)=O)CC4)C(=O)O3)CC2)cc1 (stereo not shown) [Entry 6] | 90.5
6 | Cc1ccc(N2CCN(CCC3CC4(CCN(Cc5ccccc5)CC4)C(=O)O3)CC2)cc1 (stereo not shown) [Entry 1] | 96.5
7 | Cc1ccc(N2CCN(CCC3CC4(CCNCC4)C(=O)O3)CC2)cc1 (stereo not shown) [Entry 2] | 88.8
